Measured values taken from US20130136839A1, “Taste-Masking Compositions, Sweetener Compositions and Consumable Product Compositions Containing the Same” (Nutrinova Nutrition Specialties & Food Ingredients GmbH, priority 2011, published 2013).

Experiments:
Format in all cases: in vivo, human
[1] = test system: panel of 4 trained sensory evaluators; experiment: Taste and spit assay, descriptive taste impression versus base samples, panel of 4 trained sensory evaluators (Examples 3 to 31); conditions: acesulfame K 350 wppm
Procedure: (§1) All tests were conducted under controlled and standardized conditions.
(§2) The samples were prepared by a trained laboratory assistant.
35 ml of the samples were served at room temperature in clear plastic cups.
The following samples comprising a composition of the invention were tested for their ability to improve the taste of artificial sweeteners.
All samples were tested in duplicate and evaluated at least 3 different concentrations in comparison to 3 base samples (samples 1 to 3).
The panelists were asked to evaluate and to describe the taste impression of the samples 4 to 13 containing a sweetener composition comprising acesulfame potassium, sucralose and a composition of the invention, e.g. bitter aftertaste, creaminess, fullness and character of the sweeteners in each case in comparison to the base samples 1 to 3.
The results of the taste and spit assay are based in each case on a qualitative evaluation of the differences between the samples.

[2] = test system: panel of 11 trained sensory evaluators; experiment: Taste and spit assay with regard to sweetness in the aftertaste, panel of 11 trained sensory evaluators (Example 2); conditions: aqueous samples; 35 ml at 6.0-8.0 °C; aftertaste after 2 minutes; 11 panelists; qualitative, FIG. 2
Procedure: Air was constantly exchanged.
as §2
(§3) The panel used the sweetness scale anchored by three concentrations of sucrose:
(§4) Sweetness was assessed with the 1st sip (max. 30 ml, min of 15 ml) and scored in the aftertaste (after 2 minutes).
(§5) All samples were tested in duplicate.

[3] = test system: panel of 4 trained sensory evaluators; experiment: Taste and spit assay with regard to sweetness in the aftertaste, panel of 4 trained sensory evaluators (Example 33); conditions: 35 ml at 6.0-8.0 °C; aftertaste after 2 minutes; all 4 panelists; qualitative
Procedure: as §1, §2, §3, §4, §5
The samples with the same composition as in Example 1 have been assessed: […]

panelists [4] = experiment: Dilution of naringin in water until its taste is no longer detectable (Example 34); conditions: diluted in water
Description: The method comprises the step of selecting at least one flavoring. The flavorings may be as discussed herein. The method may further comprise the step of diluting the at least one flavoring with a diluent to form a diluted composition to determine a flavor threshold level at which the flavor of the flavoring is not detectable, e.g., by taste, in the diluted composition. In order to make this determination, the diluted composition may be sampled, e.g., tasted, at various stages of dilution. As the diluted composition becomes more dilute, the flavor of the flavorant will become less recognizable or identifiable. The flavor threshold level is the point at which the flavor of the flavoring is no longer recognized or identified by a taster or taste panel. The method further comprises the step of adding at least one flavoring to a sweetener and/or sweetness enhancer to form a sweetener composition. The sweeteners and/or sweetness enhancers are discussed above. The sweeteners and/or sweetness enhancers may have an unpleasant off-taste associated therewith, as discussed above. Preferably, the flavoring is added to the sweetener and/or the sweetness enhancer at a level at or below the flavor threshold level.
Naringin was diluted in water until the diluted solution reached a concentration of 1.6 wppm. At this concentration, its taste was no longer detectable in water.

panelists [5] = experiment: Naringin at non-detectable concentration tested in acesulfame K and acesulfame K/sucralose solutions (Example 34); conditions: naringin 1.6 wppm (not detectable) in acesulfame K (350 ppm) solution and in acesulfame K (350 wppm)/sucralose (80 wppm) solution; all panelists
Description: The method further comprises the step of determining whether the at least one flavoring, when present in the sweetener composition at or below the flavor threshold level, is capable of modifying, masking, reducing and/or suppressing the unpleasant off-taste of the sweetener/sweetness enhancer in the sweetener composition. This determination may be made by employing suitable methods known in the art. For example the determination may be made by utilizing a taster or a taste panel. The taster may sample the prepared sweetener composition and make a determination as to whether the off-taste has been modified, masked, reduced, and/or suppressed. If so, then the particular flavoring is capable of modifying, masking, reducing, and/or suppressing unpleasant off-tastes. Preferably, the flavor of the flavoring is not detectable, e.g., by taste, in the sweetener composition, the sweetness enhancer composition, and/or the consumable product composition.
Then, naringin was tested at this concentration in an aceslfame K (350 ppm) solution and in an acesulfame K (350 wppm)/sucralose (80 wppm) solution.

[6] = composition with amino acids: benzaldehyde 0.02 wppm in sample 13 (sucralose 75 wppm), quinine 0.01 wppm in sample 32 (sucralose 80 wppm)
[7] = composition without amino acids: benzaldehyde 0.02 wppm in sample 12, quinine 0.01 wppm in sample 31, sucralose 80 wppm

With delta-undecalactone the “taste contribution of the lactone to the total composition” value ([1]; delta-undecalactone 0.0388 wppm in sample 14 with naringin, 4-methoxy salicylaldehyde, syringaldehyde, whiskey lactone, sucralose 80 wppm, all panelists) was “not being too volatile and as adding a creamy taste, and as improving the total composition”.
`O=Cc1ccccc1` [Benzaldehyde, benzaldehyde] was tested, and the “further effect added to the composition by the substance used below its threshold” value (shortened to “further effect added to the composition”) [1, 6] was “did not add any further effect to the composition of the invention” and the “further effect added to the composition” value [1, 7] was “did not add any further effect to the composition of the invention”.
saccharose [Sample 1] was tested, and the “sweetness in the aftertaste” value [2] was “less sweet in the aftertaste than acesulfame potassium and sucralose” and the “sweetness in the aftertaste” value [3] was “less sweet in the aftertaste compared to acesulfame potassium and sucralose”.
`C[C@@H]1O[C@@H](O[C@H]2[C@H](Oc3cc(O)c4c(c3)O[C@H](c3ccc(O)cc3)CC4=O)O[C@H](CO)[C@@H](O)[C@@H]2O)[C@H](O)[C@H](O)[C@H]1O` [Naringin] was tested, and the “concentration at which its taste was no longer detectable in water” value (panelists [4]) was 1.6 wppm and the “effect on the bitter aftertaste of acesulfame K” value (panelists [5]) was “improve the bitter aftertaste of acesulfame K”.
For `C=C[C@H]1C[N@@]2CC[C@H]1C[C@H]2[C@H](O)c1ccnc2ccc(OC)cc12` [Quinine, quinine], the “further effect added to the composition” value [1, 6] was “does not add anything to the effects of the composition” and the “further effect added to the composition” value [1, 7] was “does not add anything to the effects of the composition”.
